pEC50: −log10 of the molar value. Where two headings read alike, the source gives them in different places. A value given as a limit tells only on which side of the number the result lay.

Assay [1] concerns the target CB1 receptor. Set-up: method as in Deventer et al. [2023b]. To be noted: AequoScreen / Ca2+ release assay, ref Deventer et al. [2023b], cited from earlier work; for pEC50: read-out: EC50.
For assay [2], the target named is CB1 receptor. The note with it: β-arrestin 2 recruitment, cited from earlier work; for pEC50: read-out: EC50. (Recruitment of arrestin is a read-out of receptor activation apart from second messengers.)
In another assay the target is human CB1 receptor (Homo sapiens, UniProt P21554). Kind of assay: AequoScreen CB1 assay (intracellular Ca2+ release, CHO-K1 cells, apoaequorin/Gα16). The note with it: for Emax: CHO-K1, read-out: Efficacy (% of JWH-018) Emax; for Efficacy (Emax) Mean Diff: Brown-Forsythe and Welch ANOVA; for fold more potent than ADB-BUTINACA: EC50 ratio vs non-halogenated analog ADB-BUTINACA

Setting [3] is: Compound 1 vs Compound 2 = ADB-5’Cl-BUTINACA
Where [4] appears, read: Compound 1 vs Compound 2 = ADB-BUTINACA

human CB1 receptor, sequence (P21554 whole entry): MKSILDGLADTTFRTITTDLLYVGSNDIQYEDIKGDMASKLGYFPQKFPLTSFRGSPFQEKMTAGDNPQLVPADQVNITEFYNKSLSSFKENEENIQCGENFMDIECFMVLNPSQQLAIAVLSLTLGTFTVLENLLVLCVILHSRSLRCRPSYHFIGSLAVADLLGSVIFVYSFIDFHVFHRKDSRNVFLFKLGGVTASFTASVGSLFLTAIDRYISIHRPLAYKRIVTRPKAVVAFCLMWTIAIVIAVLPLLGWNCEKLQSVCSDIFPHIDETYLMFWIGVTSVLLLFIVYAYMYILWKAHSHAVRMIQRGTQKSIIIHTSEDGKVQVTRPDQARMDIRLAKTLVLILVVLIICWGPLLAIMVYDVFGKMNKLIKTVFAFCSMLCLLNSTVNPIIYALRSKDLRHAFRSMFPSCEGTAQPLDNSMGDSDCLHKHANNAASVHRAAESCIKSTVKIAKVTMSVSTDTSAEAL

In the case of `CCCCn1nc(C(=O)NC(C(N)=O)C(C)(C)C)c2cc(Br)ccc21` (stereo not shown) [ADB-5′Br-BUTINACA, N-[1-amino-3,3-dimethyl-1-oxobutan-2-yl]−5-bromo-1-butyl-1H-indazole-3-carboxamide], the results for the negative logarithm of the EC50 (pEC50) on CB1 receptor [1], at CB1 receptor [2] (ref Deventer et al. [2023b]) and on human CB1 receptor were 7.90, 7.09 and 7.74, respectively. Further, the Emax (commonly the greatest response seen or fitted, relative to the assay's reference) on human CB1 receptor worked out at 110%. Also, the “Efficacy (Emax) Mean Diff” value on human CB1 receptor (Compound 1 vs Compound 2 = ADB-4en-5’Br-PINACA) is given as -1.26; on human CB1 receptor (Compound 1 vs Compound 2 = ADB-5’Br-FUBINACA), -2.30; at human CB1 receptor (Compound 1 vs Compound 2 = ADB-5’Br-PINACA), 1.84; on human CB1 receptor (setting [3]) it was -2.84; at human CB1 receptor (Compound 1 vs Compound 2 = ADB-5’F-BUTINACA), -3.19; on human CB1 receptor (setting [4]), -15.66. Besides, the “Efficacy (Emax) Mean Diff” value on human CB1 receptor (Compound 1 vs Compound 2 = MDMB-5’Br-BUTINACA) was -3.82. In addition, the “fold more potent than ADB-BUTINACA” value at human CB1 receptor is recorded as 1.2 fold. Further, the “fold difference of each other (potency)” value on human CB1 receptor (brominated SCRAs with pent-4-enyl, butyl and pentyl tails) is no more than 1.4 fold.
As to `CCCCn1nc(C(=O)NC(C(N)=O)C(C)(C)C)c2cc(F)ccc21` (stereo not shown) [ADB-5′F-BUTINACA], the figures for the pEC50 at CB1 receptor [1], at CB1 receptor [2] (ref Deventer et al. [2023b]) and on human CB1 receptor were 7.74, 7.54 and 7.84, respectively. Moreover, at human CB1 receptor, the maximum response (Emax) worked out at 113%. Also, the results for the “Efficacy (Emax) Mean Diff” value at human CB1 receptor (setting [3]), at human CB1 receptor (setting [4]) and at human CB1 receptor (Compound 1 vs Compound 2 = MDMB-5’F-BUTINACA) were 0.36, -12.47 and 1.89, respectively. Moreover, the “fold more potent than ADB-BUTINACA” value at human CB1 receptor worked out at 1.5 fold.
Consider `CCCCn1nc(C(=O)NC(C(N)=O)C(C)(C)C)c2ccccc21` (stereo not shown) [ADB-BUTINACA, reference compound], for which the pEC50 (usually the EC50 on a negative log10 scale, so that one unit is a factor of ten) is 7.94 on CB1 receptor [1], 8.11 at CB1 receptor [2] (ref Sparkes et al. [2022]) and 7.67 at human CB1 receptor. Also, at human CB1 receptor, the Emax worked out at 126%.
As to `CC(C)(C)[C@H](NC(=O)c1n[nH]c2ccccc12)C(N)=O` [ADB-INACA, reference compound], the EC50 entry on CB1 receptor [1] and on CB1 receptor [2] (ref Deventer et al. [2023b]) was “did not reach saturation” each time.
With `CCCCCCCCCCn1nc(C(=O)NC(C(N)=O)C(C)(C)C)c2cc(Br)ccc21` (stereo not shown) [N-(1-amino-3,3-dimethyl-1-oxobutan-2-yl)−5-bromo-1-decyl-1H-indazole-3-carboxamide], on human CB1 receptor (three-parameter logistic fit, n ≥ 3, triplicate, racemic standards), the “Potency (EC50, nM)” value is reported as “not even reaching saturation”.

(Values after publication PMC12367851, “In vitro CB1 receptor activity of halogenated indazole synthetic cannabinoid receptor agonists” (Archives of Toxicology, 2025).)
